Test results published in patent US11919972B2, “Peptide libraries with non-canonical amino acids” (REGENERON PHARMACEUTICALS, INC., priority 2018, dated 2024).
Square brackets hold non-standard residues; d marks the D form. Ends that are not written are not given here. Ala(cPr) = N[C@@H](CC1CC1)C(=O)O

Key:
CD8+ SupT1 cells [1] = assay: Screen of focused OBOC peptide library against CD8+ cells; format: cell-based; conditions: 10% FBS
Experimental: In addition to screening the focused library against recombinant human CD8 protein, the library was screened against cells. Non-specific PCCs were identified and removed by an anti-screen against CD8− Jurkat cells. The pre-cleared library entered into a screen against CD8+ SupT1 cells in 2% FBS for 1 h at 4° C. […] Non-canonical amino acids including cyclopropyl alanine, thiazolyl alanine, 4-fluorophenylalanine, and 1-methyltryptophan were identified among the hits. The consensus sequence from the hits in Table 6 is trrkr (SEQ ID NO:30).
Because of the large number of electrostatic hits in the screen with 2% FBS, additional screens were performed varying the blocking conditions to decrease the quantity of electrostatic hits. In particular, screens using 10% FBS gave no hits with any electrostatic amino acids. These conditions ultimately identified tnpks (SEQ ID NO:31) and tp(CyA)k(Fp).

CD8+ SupT1 cells [2] = assay: Flow cytometry binding to CD8+ SupT1 and CD8− Jurkat cells; format: cell-based; conditions: FIG. 1
From the text: FIG. 1 is a graph binding of some example peptides to CD8+ cells (SuppT1 cells) and CD8− cells (Jurkat cells).
The hits identified in the non-canonical screen were further evaluated in CD8+ SupT1 and CD8− Jurkat cells by flow cytometry.

Substance	hit in CD8+ cell screen with varied blocking conditions (CD8+ SupT1 cells [1])	binding to CD8 compared with parent compound tfpkk (CD8+ SupT1 cells [2])
tnpks: hit identified in CD8+ cell screen using 10% FBS (TNPKS; (1)..(5) D amino acids)	identified	–
tp(CyA)k(FP): hit sequence following CD8+ cell screen; also identified in 10% FBS screen ([dT][dP][Ala(cPr)][dK]X; not fully specified (residue 5); printed as tp(CyA)k(FP))	identified	improved binding to CD8 over the parent compound
